“Also recorded” adds a separate entry of the source.
What was measured:
cyclin D1 = experiment: Expression of cyclin D1 in bFGF stimulated fibroblasts (Western blotting); type: cell-based, mouse; details: Compound (I) 1.25 to 20 μM, KN-93 5 to 20 μM; L929 cells; FIG. 18
Procedure: (§1) Effects of Compound (I) and KN-93 on effect on the expression of cyclin D1 and the phosphorylation of Akt when fibroblasts were stimulated with basic fibroblast growth factor (bFGF) were evaluated.
(§2) L929 cells (mouse fibroblast cell line) were cultured in MEM-Earl medium (E-MEM: GIBCO, Inc.) containing 10% fetal bovine serum and subjected to the experiment. The cells were suspended in a serum-free E-MEM and cultured for 72 hours. An E-MEM medium containing the test substance was added and incubated for 1 hour, and an E-MEM medium containing recombinant human FGF basic (bFGF) as a stimulant was added and further incubated. The cells were lysed in a RIPA buffer and a total cell lysate was obtained. After performing SDS-PAGE, proteins were transferred onto a PVDF membrane and western blotting was performed with anti-cyclin antibody or anti-Akt antibody (both available from Santa Cruz, Inc.).

SW982 cells = experiment: Proliferation of human synovial cells (Alamar Blue); type: cell-based; details: Compound (I) 1 to 30 μM, KN-93 1 to 30 μM; FIG. 4
Procedure: Effects of Compound (I) and KN-93 on the proliferation of SW982 cells (human synovial cell line) were evaluated.
SW982 cells (human synovial cell line; obtained from ATCC) was cultured in a FCS (product of SIGMA, Inc.) containing DMEM medium (product of GIBCO, Inc.) and subjected to the experiment. SW982 was disseminated in 96-well flat bottom plate in the absence of serum in a ratio of 4×10^4 cells/well. Compounds were added at the same time of the dissemination of the cells and incubated at 200 μl cells/well. 20 μl of Alamar Blue® was added to each well (BIOSOURCE, Inc.) after 18 hours and incubated for further six hours and the absorbance of each well was measured with a microplate reader. The absorbance was measured at two wavelengths of 570 nm and 600 nm.

Akt = experiment: Phosphorylation of Akt in bFGF stimulated fibroblasts (Western blotting); type: cell-based, mouse; details: Compound (I) 20 μM, KN-93 20 μM; L929 cells; FIG. 19
Procedure: as §1, §2

human CaMKII γ = experiment: Examination of CaMKII inhibitory activity (2); type: biochemical
Procedure: Test substances were dissolved in DMSO and diluted to various concentrations with a buffer solution (50 mM Tris-HCl: pH 7.5, 10 mM MgCl2, 1 mM Dithiothreitol (DTT)) (all of them are available from Nacalai Tesque, Inc.) for CaMKII reaction. CaMKIIα (final concentration 0.75 μg/ml) (Santa Cruz, Inc.) derived from rat was mixed with Autocamtide-2® (40 μM) (CALBIOCHEM Company) dissolved in CaMKII reaction buffer solution in the presence of the test substance and with CaMKII activation buffer solution (1 mMCaCl2, 1 μM calmodulin) (Nacalai Tesque, Inc.) and the reaction was started by further adding ATP (50 μM) (Nacalai Tesque, Inc.). The reaction was performed at 30° C. for five minutes and then SDS-PAGE sample buffer solution was added and the reaction was terminated by boiling for five minutes. Proteins in the reaction mixture were separated by 15% SDS-PAGE and blotted onto a PVDF membrane. Phosphorus taken in by Autocamtide-2 was reacted with an anti-phosphorylated serine/threonine antibody (Santa Cruz, Inc.) and quantified by ECL system (Amersham, Inc.) and NIH Image (downloadable from http://rsb.info.nih.gov/nih-image/).
CaMKII γ gene was prepared by PCR method using two kinds of primers (5′-TC GGATCCAGCATGGCCACCACCGCCACCTG-3′ [SEQ ID NO 4] and 5′-TA GAATTCACACTGCAGCGGTGCGGCAGG [SEQ ID NO 5]) synthesized based on the sequence of GenBank Accession No. L07044 and cDNA derived from cultured cells (JurketT cells) prepared by a conventional method as a template. The CaMKII γ gene was excised by BamHI and EcoRI and introduced into the MCS of pFastBacl transfer vector. Expression virus was prepared and amplified based on this vector. The details followed the manual of Bac-to-Bac baculovirus expression system (Invitrogen, Inc.). Expressed CaMKII γ was purified in accordance with the method described in literature (Biochemical & Biophysical Research Communications, 173(2): 578-84, 1990). That is, expression cells were pulverized by supersonic wave and preparation was performed by affinity refinement with calmodulin sepharose (Amasham Biosciences, Inc.) from cell soluble fraction obtained by centrifugal operation via ammonium sulfate fraction of final concentration of 60%. Confirmation of expression was performed by Western blotting method using anti-CaMKII γ specific antibody, sc1541 (Santa Cruz, Inc.).
CaMKII γ inhibitory activity of test substances were measured in the same conditions as in Example 1 except human CaMKII γ prepared by the above procedure was used in place of CaMKII α derived from rat.

L929 cells = experiment: Proliferation of fibroblasts stimulated with bFGF (Brd-U uptake); type: cell-based, mouse; details: Compound (I) 0.3 to 10 μM, KN-93 1 to 30 μM; FIG. 3
Procedure: Effects of Compound (I) and KN-93 on the proliferation of fibroblasts when the fibroblasts were stimulated with basic fibroblast growth factor (bFGF) were evaluated.
L929 cells (mouse fibroblast cell line) were cultured in MEM-Earl medium (E-MEM: GIBCO, Inc.) containing 10% fetal bovine serum and subjected to the experiment. The cells were suspended in a serum-free E-MEM and disseminated in 96-well plate in a ratio of 2×10^4 cells/well and incubated for 72 hours. An E-MEM medium containing the test substance was added and incubated for 1 hour, and an E-MEM medium containing recombinant human FGF basic (bFGF) as a stimulant was added and incubated for 20 hours. 5-Bromo2′-deoxyuridine (Brd-U) solution was added to each well and incubated at 37° C. for further four hours. The cells were fixed and uptake of Brd-U was detected by Cell proliferation ELISA system (Amersham) and absorbance at 450 nm was measured with a microplate reader. This value of absorbance was used as an index of cell proliferation.

SMILES	enhanced expression of cyclin D1 (cyclin D1)	proliferation of SW982 cells (SW982 cells)	phosphorylation of Akt (Akt)	concentration with an effect of inhibiting the activity of CaMKII (human CaMKII γ) [µM]	Inhibition rate (%) (human CaMKII γ; Concentration 1 μm)	Inhibition rate (%) (human CaMKII γ; Concentration 10 μm)	Inhibition rate (%) (human CaMKII γ; Concentration 30 μm)	proliferation of fibroblasts (L929 cells)
COc1ccc(S(=O)(=O)N(CCO)c2ccccc2CN(C)C/C=C/c2ccc(Cl)cc2)cc1 [KN-93, N-(2-[N-[4-chlorocinnamyl]-N-methylaminomethyl]phenyl)-N-(2-hydroxyethyl)-4-methoxybenzenesulfonamide, reference compound]	suppressed the enhanced expression of cyclin D1	dose-dependently suppressed the proliferation of human synovial cells; also recorded: almost completely suppressed	suppressed the phosphorylation of Akt	≥ 1	27	101	107	dose-dependently suppressed the proliferation of fibroblasts
C[C@@H](c1ccc(-c2ccccc2)c(F)c1)c1cc(/N=C(/N)N2CCOCC2)on1 [Compound (I), 3-[(1S)-1-(2-fluorobiphenyl-4-yl)ethyl]-5-{[amino(morpholin-4-yl)methylene]amino}isoxazole]	suppressed the enhanced expression of cyclin D1	dose-dependently suppressed the proliferation of human synovial cells; also recorded: almost completely suppressed	suppressed the phosphorylation of Akt	≥ 10	7	33	57	dose-dependently suppressed the proliferation of fibroblasts

Source: patent US20080255121A1, “Combination Drug for Treating Autoimmune Disease” (DAINIPPON SUMITOMO PHARMA CO., LTD., priority 2004, published 2008)
